For data set [1], the target named is T1, hERG (Homo sapiens, UniProt Q12809).
T1 construct: expressed in transfected cells
The experiment in a line: hERG inhibition screen (patch clamp, peak hERG tail current). Format: cell-based. Particulars: for inhibition at 10 µM: human. As to the method: Cells were cultured in DMEM/F-12 medium supplemented with 10% fetal bovine serum and 400 μg/mL Geneticin. Cells were grown in 75 cm tissue culture flasks maintained at 37° C. with 5% CO2 and passaged every 3 days using 0.05/0.02% Trypsin/EDTA (confluency of <80%). For the purpose of electrophysiology, cells were seeded in 25 cm2 tissue culture flasks. Three day old cells were harvested using Trypsin/EDTA (0.025/0.01%) as detaching agent and resuspended in external recording solution.
Preweighed quantity of test item was dissolved in tissue culture grade DMSO to prepare a primary stock solution. The strength of the primary stock was 1000× of the intended highest test concentration. Subsequently, working stock solutions of appropriate strengths was prepared by dilution of primary stock with DMSO. The stock solutions were aliquoted into eppendorff tubes and stored at −20° C. freezer (<0° C.) until use. On the day of experiment, aliquots were thawed and used for preparing the assay solution (test solution).
Test solutions were prepared fresh by adding 4 μL of stock solution in to 3996 μL external recording solution such that the final DMSO concentration in the assay solution was 0.1% v/v. Upon addition, solution was inspected carefully against light by naked eye for any indications of precipitation.
Electrophysiological Procedures: • Electrophysiology Setup: Instrument: Port-A-Patch • Patch clamp type: Semiautomatic • Manufacturer: Nanion technologies, GmBH Germany • Electrophysiology chips: Glasscoated NPC-1 chips • Recording Condition: Room temperature • Compound Addition Protocol: Manual addition—20 μL of solution was added on one side of the chip, followed by withdrawal of 20 μL from the other side. This way of addition and withdrawal was repeated at least 4-5 times to ensure actual test concentration is reached. • Test Concentration Exposure Period: Cells were exposed to each test concentration for 3 min or till a steady state block was reached • Voltage Protocol: −40 mV subtraction pulse for 0.5 sec; +40 mV activation pre-pulse for 2 sec; −40 mV test pulse for 2 sec and −80 mV holding potential repeated at every 10 sec • Assay end point: Peak hERG tail current recorded when the voltage was reduced from +40 mV to −40 mV.
The steady state current after the application of 0.1% DMSO was considered as baseline (control current). Steady state current obtained at the end of each test concentration addition was used to calculate the % hERG current inhibited at each concentration. Any rundown due to vehicle addition was corrected to calculate % hERG current inhibition. Each cell acted as its own control. Average current of last 3-5 sweeps of acceptable quality was considered for calculation of % inhibition. Sweeps with artifacts and noise were omitted while calculation.
A general note: hERG is a cardiac potassium channel; its block is linked to QT prolongation.

A short description of data set [2]: Pharmacokinetic screening in male CD-1 mice. It counts as in vivo. Particulars: mouse; for C0: read-out: IV PK C0; for Vd: read-out: IV PK Vss; for bioavailability: read-out: Oral PK % F; for Cmax: read-out: Oral PK Cmax; for Tmax: read-out: Oral PK T max. As to the method:
(§1) In this example, the PK profile of several PPARδ agonists disclosed herein in male CD-1 mice or Wistar rats was determined by the methods disclosed in Boxenbaum H. (1980) Interspecies variation in liver weight, hepatic blood flow and antipyrine intrinsic clearance in extrapolation of Benzodiazepines and phenytoin. J. Pharmacokinet Biopharm 8: 165-176. Similar methods can be used to analyze other compounds provided herein.
(§2) All compounds were separately administered to CD-1 mice at 1 mg/kg iv or 3 mg/kg po. The compounds were separately administered to male Wistar rats 1 mg/kg iv or 3 mg/kg po. The species M refers to mouse and R reports to rat in the following table. NA means not available.

Data set [3] can be described thus: Pharmacokinetic screening in male Wistar rats. Particulars: in vivo, rat; for C0: read-out: IV PK C0; for clearance: read-out: IV PK Cl; for Vd: read-out: IV PK Vss; for bioavailability: 3.0 mpk po vs 1.0 mpk iv, read-out: Oral PK % F; for Cmax: read-out: Oral PK Cmax; for Tmax: read-out: Oral PK T max. As to the method: as §1, §2
[4] abbreviates: male, CD-1, in vivo, 1 mg/kg, 1.0 mpk iv, read-out: IV PK AUC (0-inf).
[5] abbreviates: male, CD-1, in vivo, 1 mg/kg, 1.0 mpk iv.
The mark [6] stands for this setting: male, CD-1, in vivo, 3 mg/kg, 3.0 mpk po vs 1.0 mpk iv.
The mark [7] stands for this setting: male, CD-1, in vivo, 3 mg/kg, 3.0 mpk po, read-out: Oral PK AUC (0-inf).
[8] abbreviates: male, CD-1, in vivo, 3 mg/kg, 3.0 mpk po.
Where [9] appears, read: male, CD-1, in vivo, 3 mg/kg, 3.0 mpk po, read-out: Oral PK T½ (converted).
Setting [10] is: 1 mg/kg, 1.0 mpk iv, read-out: IV PK AUC (0-inf).
Setting [11] is: 1 mg/kg, 1.0 mpk iv, read-out: IV PK Beta T½ (converted).
Where [12] appears, read: 3 mg/kg, 3.0 mpk po, read-out: Oral PK AUC (0-inf).
Where [13] appears, read: male, CD-1, in vivo, 1 mg/kg, 1.0 mpk iv, read-out: IV PK Beta T½ (converted).
The mark [14] stands for this setting: 3 mg/kg, 3.0 mpk po, read-out: Oral PK T½ (converted).

By inhibition is commonly meant the relative decrease from the control value, in per cent. Read a high inhibition as strong suppression. One may read the AUC(0-inf) as the area under the concentration-time curve extrapolated to infinity. The Cmax is the highest concentration seen after dosing.

T1 sequence (Q12809 whole entry): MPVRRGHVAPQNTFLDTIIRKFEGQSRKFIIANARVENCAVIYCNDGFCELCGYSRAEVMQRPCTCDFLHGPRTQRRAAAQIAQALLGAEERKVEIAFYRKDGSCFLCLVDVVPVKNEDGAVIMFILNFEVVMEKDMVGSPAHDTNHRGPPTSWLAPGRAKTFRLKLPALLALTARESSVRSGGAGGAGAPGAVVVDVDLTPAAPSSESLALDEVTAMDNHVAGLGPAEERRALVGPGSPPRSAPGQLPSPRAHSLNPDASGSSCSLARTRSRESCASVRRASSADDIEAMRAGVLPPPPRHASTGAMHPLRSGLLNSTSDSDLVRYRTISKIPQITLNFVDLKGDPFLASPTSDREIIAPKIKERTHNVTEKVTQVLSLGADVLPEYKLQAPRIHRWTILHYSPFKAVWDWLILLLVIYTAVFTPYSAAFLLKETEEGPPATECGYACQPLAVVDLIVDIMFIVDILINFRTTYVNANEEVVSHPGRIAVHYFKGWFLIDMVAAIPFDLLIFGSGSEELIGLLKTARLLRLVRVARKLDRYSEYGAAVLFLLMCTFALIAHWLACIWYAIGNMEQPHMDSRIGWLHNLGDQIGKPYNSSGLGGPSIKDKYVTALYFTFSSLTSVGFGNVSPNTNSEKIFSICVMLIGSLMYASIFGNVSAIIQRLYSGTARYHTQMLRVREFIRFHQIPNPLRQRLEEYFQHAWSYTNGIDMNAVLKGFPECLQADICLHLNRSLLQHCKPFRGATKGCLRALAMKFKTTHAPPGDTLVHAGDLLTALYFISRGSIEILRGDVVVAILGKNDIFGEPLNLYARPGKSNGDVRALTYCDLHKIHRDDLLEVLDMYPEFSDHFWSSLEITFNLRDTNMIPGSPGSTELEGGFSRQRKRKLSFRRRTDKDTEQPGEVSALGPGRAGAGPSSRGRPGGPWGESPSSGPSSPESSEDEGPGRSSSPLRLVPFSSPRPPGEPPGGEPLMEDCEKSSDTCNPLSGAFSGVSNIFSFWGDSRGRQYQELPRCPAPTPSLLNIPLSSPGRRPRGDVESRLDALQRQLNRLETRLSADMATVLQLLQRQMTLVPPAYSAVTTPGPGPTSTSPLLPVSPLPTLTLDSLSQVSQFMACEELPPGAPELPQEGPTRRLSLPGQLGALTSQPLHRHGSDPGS

Take `C[C@H](CCCOc1ccccc1Cn1c(C(F)(F)F)cnc1-c1ccc(C(F)(F)F)cc1)CC(=O)O` [Compound 2a, (3R)-3-methyl-6-(2-((5-(trifluoromethyl)-2-(4-(trifluoromethyl)phenyl)-1H-imidazol-1-yl)methyl)phenoxy)hexanoic acid]: the inhibition at 10 µM in data set [1] came out at 6%. Also, the AUC(0-inf) in data set [2] (setting [4]) was 3310 ng·h/mL; in data set [2] (setting [7]), 6960 ng·h/mL; in data set [3] (setting [10]) it was 5040 ng·h/mL; in data set [3] (setting [12]) it was 16100 ng·h/mL. In addition, the C0 in data set [2] (setting [5]) turned out to be 740 ng/mL; in data set [3] (1 mg/kg, 1.0 mpk iv) it was 1530 ng/mL. The Vd amounted to 1.9 L/kg in data set [2] (setting [5]) and 1.7 L/kg in data set [3] (1 mg/kg, 1.0 mpk iv). In addition, the bioavailability in data set [2] (setting [6]) is 70%; in data set [3] (3 mg/kg) it was 100%. The maximum concentration (Cmax) in data set [2] (setting [8]) was 1260 ng/mL; in data set [3] (3 mg/kg, 3.0 mpk po), 1200 ng/mL. The Tmax in data set [2] (setting [8]) is 0.3 h; in data set [3] (3 mg/kg, 3.0 mpk po), 2.8 h. In addition, the half-life was 3.8 h in data set [2] (setting [9]) and 7.1 h in data set [3] (setting [11]). In addition, the “IV PK Beta T½” value in data set [2] (1.0 mpk iv) was found to be 5.8 h. Besides, the “IV PK Cl” value in data set [2] (1.0 mpk iv) came to 5.0 mL/min/kg. Besides, the clearance in data set [3] (1 mg/kg, 1.0 mpk iv) came out at 3.8 mL/min/kg.

For `C[C@H](CCCOc1ccccc1Cn1c(Cl)cnc1-c1ccc(C(F)(F)F)cc1)CC(=O)O` [Compound 2b, (R)-6-(2-((5-chloro-2-(4-(trifluoromethyl)phenyl)-1H-imidazol-1-yl)methyl)phenoxy)-3-methylhexanoic acid], in data set [1], the “hERG % Inhibition at 10 μM” value was determined as 3.00%. Further, the AUC(0-inf) in data set [2] (setting [4]) was 1060 ng·h/mL; in data set [2] (setting [7]), 3880 ng·h/mL; in data set [3] (setting [10]) it was 2970 ng·h/mL; in data set [3] (setting [12]), 7790 ng·h/mL. In addition, the half-life in data set [2] (setting [13]) is 3.5 h; in data set [2] (setting [9]) it was 4.3 h; in data set [3] (setting [11]), 4.8 h; in data set [3] (setting [14]), 4.1 h. The C0 in data set [2] (setting [5]) turned out to be 810 ng/mL; in data set [3] (1 mg/kg, 1.0 mpk iv), 2120 ng/mL. The Vd in data set [2] (setting [5]) was 3.1 L/kg; in data set [3] (1 mg/kg, 1.0 mpk iv), 1.2 L/kg. The bioavailability came out at 100% in data set [2] (setting [6]) and 87% in data set [3] (3 mg/kg). Further, the Cmax came to 2950 ng/mL in data set [2] (setting [8]) and 2380 ng/mL in data set [3] (3 mg/kg, 3.0 mpk po). For the same compound, the Tmax worked out at 0.5 h in data set [2] (setting [8]) and 0.3 h in data set [3] (3 mg/kg, 3.0 mpk po). Moreover, in data set [2] (1.0 mpk iv), the “IV PK Cl” value was 16 mL/min/kg. Further, in data set [3] (1 mg/kg, 1.0 mpk iv), the clearance turned out to be 5.8 mL/min/kg.

Take `C[C@H](CCCOc1ccccc1Cn1c(C#N)cnc1-c1ccc(C(F)(F)F)cc1)CC(=O)O` [Compound 2c, (3R)-6-(2-((5-cyano-2-(4-(trifluoromethyl)phenyl)-1H-imidazol-1-yl)methyl)phenoxy)-3-methylhexanoic acid]: the “hERG % Inhibition at 10 μM” value in data set [1] was found to be 2.50%.

Consider `C[C@H](CCCOc1ccccc1Cn1c(C(F)(F)F)cnc1-c1ccc(Cl)cc1)CC(=O)O` [Compound 2d, (3R)-6-(2-((2-(4-chlorophenyl)-5-(trifluoromethyl)-1H-imidazol-1-yl)methyl)phenoxy)-3-methylhexanoic acid], for which the “hERG % Inhibition at 10 μM” value in data set [1] is on record as 5.00%. The AUC(0-inf) in data set [2] (setting [4]) stood at 5620 ng·h/mL. Besides, the half-life in data set [2] (setting [13]) was 6.3 h. Further, in data set [2] (setting [5]), the C0 was 1720 ng/mL and the Vd turned out to be 1.4 L/kg. Moreover, the clearance in data set [2] (male, CD-1, in vivo, 1 mg/kg, 1.0 mpk iv, read-out: IV PK Cl) worked out at 5.4 mL/min/kg. In data set [2] (setting [6]), the bioavailability is 61%. Besides, in data set [2] (setting [7]), the AUC(0-inf) was found to be 5620 ng·h/mL. In data set [2] (setting [8]), the Cmax stood at 2830 ng/mL and the Tmax stood at 0.3 h. For the same compound, the half-life in data set [2] (setting [9]) was 10 h.

`C[C@H](CCCOc1ccccc1Cn1c(C(F)(F)F)cnc1-c1ccc(C#N)cc1)CC(=O)O` [Compound 2f, (R)-6-(2-((2-(4-cyanophenyl)-5-(trifluoromethyl)-1H-imidazol-1-yl)methyl)phenoxy)-3-methylhexanoic acid]: 10 µM produced 3.5% inhibition in data set [1]. For the same compound, the AUC(0-inf) stood at 6730 ng·h/mL in data set [2] (setting [4]), 14700 ng·h/mL in data set [2] (setting [7]), 4090 ng·h/mL in data set [3] (setting [10]) and 14900 ng·h/mL in data set [3] (setting [12]). Besides, the figures for the half-life in data set [2] (setting [13]), in data set [2] (setting [9]) and in data set [3] (setting [14]) were 4.1 h, 4.9 h and 10.3 h, respectively. Further, the C0 in data set [2] (setting [5]) came to 2450 ng/mL; in data set [3] (1 mg/kg, 1.0 mpk iv), 1820 ng/mL. Moreover, the Vd was 0.6 L/kg in data set [2] (setting [5]) and 3.9 L/kg in data set [3] (1 mg/kg, 1.0 mpk iv). In addition, the maximum concentration (Cmax) came out at 4240 ng/mL in data set [2] (setting [8]) and 4330 ng/mL in data set [3] (3 mg/kg, 3.0 mpk po). Besides, the Tmax in data set [2] (setting [8]) came out at 0.3 h; in data set [3] (3 mg/kg, 3.0 mpk po), 0.3 h. Also, in data set [2] (1.0 mpk iv), the “IV PK Cl” value is reported as 2.5 mL/min/kg. Further, the “Oral PK % F” value in data set [2] (3.0 mpk po vs 1.0 mpk iv) amounted to 73%. Besides, the clearance in data set [3] (1 mg/kg, 1.0 mpk iv) worked out at 3 mL/min/kg. Further, the bioavailability in data set [3] (3 mg/kg) was found to be 100%.

In the case of `C[C@H](CCCOc1ccccc1Cn1c(C(F)(F)F)cnc1-c1ccc(OC(F)(F)F)cc1)CC(=O)O` [Compound 2g, (3R)-3-methyl-6-(2-((2-(4-(trifluoromethoxy)phenyl)-5-(trifluoromethyl)-1H-imidazol-1-yl)methyl)phenoxy)hexanoic acid], the “hERG % Inhibition at 10 μM” value in data set [1] is recorded as 2.00%.

Take `C[C@H](CCCOc1ccccc1Cn1c(C(F)(F)F)cnc1-c1ccc(-c2ccco2)cc1)CC(=O)O` [Compound 2i, (3R)-6-(2-((2-(4-(furan-2-yl)phenyl)-5-(trifluoromethyl)-1H-imidazol-1-yl)methyl)phenoxy)-3-methylhexanoic acid]: the “hERG % Inhibition at 10 μM” value in data set [1] came to 2.30%.

The record behind these values is patent US11358954B2, “PPAR agonists, compounds, pharmaceutical compositions, and methods of use thereof” (Mitobridge, Inc., priority 2016, dated 2022).
